# Experiments:
# [1] = test system: snake-venom phosphodiesterase (SVPD); assay: Resistance to enzymatic cleavage by SVPD, monitored by UHPLC-MS (Example 2.6); conditions: 37° C., FIGS. 10A, 10C; for Resistance to enzymatic degradation by SVPD, compared with corresponding non-fluorinated ribo-CDN analog: 7 μg CDN, 160 μg SVPD in PBS with 0.6 mM MgCl2, 0 to 120 hours; for Resistance to SVPD, compared with corresponding analog containing two phosphodiester linkages: phosphorothioate vs phosphodiester fluorinated deoxyribo-CDNs
# Description: (§1) • Enzymes used: snake-venom phosphodiesterase (SVPD) and nuclease P1 (NP1) • Subject CDNs tested: CL603, CL632, CL614 and CL656 • Reference (non-fluorinated) CDNs tested: c-GAMP and c-AIMP • Property evaluated: resistance to enzymatic cleavage
# (§2) We incubated each CDN with either of two enzymes known to cleave nucleic acids and CDNs, and then looked for signs of degradation by UHPLC over time, by measuring the decrease in the area of the peak corresponding to the CDN (identified according to MS). Specifically, we assessed the resistance of the CDNs to snake-venom phosphodiesterase (SVPD) and nuclease P1 (NP1), both of which can degrade CDNs by cleaving the phosphodiester nucleotide linkages. The experiment was performed as follows:
# (§3) Each CDN (7 […]g) was separately incubated with a solution (21 µL) of either enzyme (either 160 µg SVPD in PBS buffer containing 0.6 mM MgCl2; or 2.5 mU NP1 in 30 mM acetate buffer containing 2 mM ZnCl2 [pH 5.3]), or with water (as control) in a water bath at 37° C. Aliquots of the reaction mixture were collected at various time points from 0 to 120 hours, heated at 100° C. for 2 min, and then frozen at […] Finally, 10 µL of each aliquot was injected directly into the HPLC (Agilent 1290 Infinity UHPLC equipped with a UV-detector; column: Waters Acquity UPLC CSH C18 1.7 µm [2.1 mm×50 mm; flow rate: 0.3 mL/min]; detection at 254 nm; autosampler temperature: 25° C.) for analysis. The following gradient was used: 100% A (10 mM aq. ammonium formate) for 1 minute; then 100% A to 100% B (acetonitrile) over 5 minutes.
# (§4) The percentage of absorbance of CDNs at each time point was calculated by dividing the peak area corresponding to the parent CDN, by the sum of all the peak areas in the chromatogram, and then multiplying by 100.
# [2] = test system: whole blood from healthy human donors; assay: Cytokine induction in vitro in whole blood from healthy human donors (Example 2.5); assay type: cell-based; conditions: blood diluted 1:1 in RPMI, 18 to 20 hours, averages for all 20 donors, FIG. 9; for Type I IFN induction in human whole blood (active concentration): HEK-Blue™ IFN-α/β-KO-STING reporter; for IL-1 induction in human whole blood (active concentration): HEK-Blue™ IL-1R reporter; for TNF-α induction in human whole blood (active concentration): HEK-Blue™ TNF-α reporter
# Text: HEK-Blue™ cell lines: The following three cell lines also were used for biological evaluation of the CDNs. • 1. HEK-Blue™ IFN-α/β-KO-STING: These cells are derived from HEK-Blue™ IFN-α/β cells (InvivoGen catalog code: hkb-ifnab), in which the STING gene has been inactivated. HEK-Blue™ IFN-α/β cells enable detection of bioactive human type I IFNs through monitoring of activation of the ISGF3 pathway. These cells were generated by stable transfection of HEK293 cells with the human STAT2 and IRF9 genes to obtain a fully active type I IFN signaling pathway. The other genes of the pathway (IFNAR1, IFNAR2, JAK1, TyK2 and STAT1) are naturally expressed in sufficient amounts. The cells were further transfected with a SEAP reporter gene under control of an IFN-α/β-inducible ISG54 promoter. Stimulation of HEK-Blue™ IFN-α/β cells with human IFN-α or IFN-β activates the JAK/STAT/ISGF3 pathway and subsequently induces production of SEAP. Production of Type I interferons in these cells is measured using QUANTI-Blue™. • 2. HEK-Blue™ IL-1R (InvivoGen catalog code: hkb-illr): HEK-Blue™ IL-1R cells were designed to detect bioactive human and murine IL-1β through monitoring of activation of the NF-κB and AP-1 pathways. Additionally, these cells detect bioactive IL-1β from cynomolgus monkeys, dogs and rats. In fact, HEK-Blue™ IL-1R cells can detect IL-la and IL-1(3, as these cytokines bind to the same receptor, IL-1R. These cells derive from HEK-Blue™ IL-1β cells (InvivoGen catalog code: hkb-illb), in which the TNF-α response is blocked. Therefore, HEK-Blue™ IL-1R cells respond specifically to IL-1. These cells endogenously express the human IL-1 receptor and were stably transfected with the murine IL-1 receptor, rendering them very sensitive to both human and murine IL-1(3. HEK-Blue™ IL-1R cells express a SEAP reporter gene under control of an IFN-(3 minimal promoter fused to five NF-κB and five AP-1 binding sites. Binding of IL-1β to IL-1R on the surface of HEK-Blue™ IL-1R cells triggers a signaling cascade that leads to the activation of NF-κB and subsequent production of SEAP. Production of IL-1β in these cells is measured using QUANTI-Blue™. • 3. HEK-Blue™ TNF-II-[…](InvivoGen catalog code: hkb-tnfdmyd): HEK-Blue™ TNF-α cells enable detection of bioactive human and murine TNF-α through monitoring of activation of the NF-κB pathway. These cells were generated by stable transfection of HEK293 cells with a SEAP reporter gene under control of an IFN-(3 minimal promoter fused to five NF-κB and five AP-1 binding sites. They were further rendered unresponsive to IL-1β by knocking out the MyD88 gene. Stimulation of HEK-Blue™ TNF-α cells with TNF-α triggers activation of the NF-κB-inducible promoter and production of SEAP. Production of TNF-α in these cells is measured using QUANTI-Blue™. Quantification of IL-6 in Experiments
# Acquisition and Handling of Human Blood Samples
# Twenty human blood samples were acquired from heathy donors at the San Diego Blood Bank (3636 Gateway Center Ave, Suite 100; San Diego, Calif. 92102; USA; www.sandiegobloodbank.org). Briefly, the samples were collected by venipuncture into sodium heparin (green-cap) tubes at the time of donation, and then stored at 4° C. until pick-up. The tubes were picked up on the day of collection, stored on ice during transport, and subsequently tested with the CDNs on the same day.
# Each blood sample was diluted (1:1) in RPMI medium and aliquoted into 96-well plates (180-[…]L wells) containing each CDN at six different concentrations (30 µg/mL, 10 µg/mL, 3 µg/mL, 1 µg/mL, 0.3 µg/mL and 0.1 µg/mL). The plates were incubated at 37° C. in a CO2 incubator for 18 to 20 hours. The next day the supernatants were collected, transferred into the corresponding wells of round-bottom 96-well plates, and stored at −80° C. […]
# [3] = literature example (Li, 2014); cited from earlier work
# [4] = target: T1, nuclease P1 (NP1) (Penicillium citrinum, UniProt P24289); assay: Resistance to enzymatic cleavage by NP1, monitored by UHPLC-MS (Example 2.6); conditions: 7 μg CDN; 2.5 mU NP1 in 30 mM acetate buffer with 2 mM ZnCl2, pH 5.3; 37° C.; 0 to 120 hours; FIGS. 10B, 10D
# T1 sequence (P24289 1-270): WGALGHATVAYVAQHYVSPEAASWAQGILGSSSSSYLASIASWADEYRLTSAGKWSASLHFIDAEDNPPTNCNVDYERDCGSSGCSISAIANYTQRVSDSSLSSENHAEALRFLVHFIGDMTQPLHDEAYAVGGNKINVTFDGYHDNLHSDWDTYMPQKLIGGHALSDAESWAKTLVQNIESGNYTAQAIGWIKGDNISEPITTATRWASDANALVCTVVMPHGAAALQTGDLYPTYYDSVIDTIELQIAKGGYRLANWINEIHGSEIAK
# Description: as §1, §2, §3, §4
# [5] = test system: mice; assay: Cytokine induction in CDN-treated mice (Example 2.3); assay type: in vivo, mouse; conditions: Swiss mice; 10 mg/kg i.v.; 4 h post-injection; RAW ISG54 reporter cells; FIG. 6
# Text: Interleukin-6 was quantified using an enzyme-linked immunoassay (ELISA) according to the manufacturer's instructions (R&D Systems).
# • Species evaluated: mouse • Cyclic dinucleotides tested: CL604, CL606, CL609, CL611 and CL614 • Reference compound: c-AIMP and saline • Cytokines evaluated: IFN-α/β (using RAW ISG54 reporter cells) and IL-6 (by ELISA).
# Twenty-one mice (Swiss; female; mean age: 8 weeks) were divided into seven groups of three: one group served as control (saline) and the other six groups were each treated with a cyclic dinucleotide (either c-AIMP, CL604, CL606, CL609, CL611 or CL614). On Day −7, blood samples for basal cytokine levels were collected from all mice and stored at −20° C. until analysis. On Day 1, the mice were treated with either 200 μL of physiologic serum (containing 0.9% NaCl) or 200 μL of a solution of a cyclic dinucleotide (dose: 10 mg/kg) in physiologic serum (containing 0.9% NaCl), by intravenous (i.v.) injection. Blood samples were collected from the mice at 4 h post-injection, and then stored at −20° C. until analysis. Cytokine induction was measured in the sera from the blood samples.
SMILES,"Resistance to enzymatic degradation by SVPD, compared with corresponding non-fluorinated ribo-CDN analog [1]","Resistance to SVPD, compared with corresponding analog containing two phosphodiester linkages [1]",Type I IFN induction in human whole blood (active concentration) [2],IL-1 induction in human whole blood (active concentration) [2],TNF-α induction in human whole blood (active concentration) [2],Resistance to enzymatic hydrolysis compared with phosphodiester analog [3],"Resistance to enzymatic degradation by NP1, compared with corresponding non-fluorinated ribo-CDN analog [4]",Type I interferon (IFN-α/β) induction in sera from mice [5]
Nc1ncnc2c1ncn2C1OC2COP(=O)(S)O[C@@H]3C(COP(=O)(S)O[C@H]2[C@H]1F)OC(n1cnc2c(=O)[nH]cnc21)[C@@H]3F (mixture of isomers) [CL656],more resistant to enzymatic degradation,more resistant to SVPD,more active than is its corresponding non-fluorinated analog,more active than is its corresponding non-fluorinated analog,more active than is its corresponding non-fluorinated analog,,,
"Nc1nc2c(ncn2[C@@H]2O[C@@H]3COP(O)(=S)O[C@H]4[C@@H](O)[C@H](n5cnc6c(N)ncnc65)O[C@@H]4COP(=O)(S)O[C@@H]2[C@@H]3O)c(=O)[nH]1 (stereo partly drawn) [(2′,3′) c-GAMP(S)]",,,,,,more resistant to enzymatic hydrolysis,,
Nc1nc2c(ncn2C2OC3COP(=O)(O)O[C@@H]4C(COP(=O)(O)O[C@H]3[C@H]2F)OC(n2cnc3c(N)ncnc32)[C@@H]4F)c(=O)[nH]1 (some centres unmarked) [CL603],more resistant to enzymatic degradation,,more active than is its corresponding non-fluorinated analog,more active than is its corresponding non-fluorinated analog,more active than is its corresponding non-fluorinated analog,,more resistant to enzymatic degradation,
Nc1ncnc2c1ncn2C1OC2COP(=O)(O)O[C@H]3C(n4cnc5c(=O)[nH]cnc54)OC(COP(=O)(O)O[C@@H]1[C@@H]2O)[C@H]3O (some centres unmarked) [CL611],,,,,,,,except CL611 strongly induced Type I interferons
Nc1ncnc2c1ncn2C1OC2COP(=O)(O)O[C@@H]3C(COP(=O)(O)O[C@H]2[C@H]1F)OC(n1cnc2c(=O)[nH]cnc21)[C@@H]3F (some centres unmarked) [CL614],more resistant to enzymatic degradation,,more active than is its corresponding non-fluorinated analog,more active than is its corresponding non-fluorinated analog,more active than is its corresponding non-fluorinated analog,,more resistant to enzymatic degradation,
Nc1nc2c(ncn2C2OC3COP(=O)(S)O[C@@H]4C(COP(=O)(S)O[C@H]3[C@H]2F)OC(n2cnc3c(N)ncnc32)[C@@H]4F)c(=O)[nH]1 (some centres unmarked) [CL632],more resistant to enzymatic degradation,more resistant to SVPD,,,,,more resistant to enzymatic degradation,

# — patent US11667664B2, “Cyclic dinucleotides for cytokine induction” (KAYLA THERAPEUTICS, priority 2014, dated 2023)
